For data set [1] the following is noted: laboratory study; cited from earlier work.
Data set [2] deals with skin. Particulars: clinical studies; could be related to formaldehyde release; cited from earlier work.
The conditions of data set [3]: concentrations higher than in products; attributed to formaldehyde release; cited from earlier work.
Data set [4] deals with skin. The settings on record: cited from earlier work.
The target in the next data set is T1, S1P lyase (Mus musculus, UniProt Q8R0X7).
T1 sequence (Q8R0X7 1-568): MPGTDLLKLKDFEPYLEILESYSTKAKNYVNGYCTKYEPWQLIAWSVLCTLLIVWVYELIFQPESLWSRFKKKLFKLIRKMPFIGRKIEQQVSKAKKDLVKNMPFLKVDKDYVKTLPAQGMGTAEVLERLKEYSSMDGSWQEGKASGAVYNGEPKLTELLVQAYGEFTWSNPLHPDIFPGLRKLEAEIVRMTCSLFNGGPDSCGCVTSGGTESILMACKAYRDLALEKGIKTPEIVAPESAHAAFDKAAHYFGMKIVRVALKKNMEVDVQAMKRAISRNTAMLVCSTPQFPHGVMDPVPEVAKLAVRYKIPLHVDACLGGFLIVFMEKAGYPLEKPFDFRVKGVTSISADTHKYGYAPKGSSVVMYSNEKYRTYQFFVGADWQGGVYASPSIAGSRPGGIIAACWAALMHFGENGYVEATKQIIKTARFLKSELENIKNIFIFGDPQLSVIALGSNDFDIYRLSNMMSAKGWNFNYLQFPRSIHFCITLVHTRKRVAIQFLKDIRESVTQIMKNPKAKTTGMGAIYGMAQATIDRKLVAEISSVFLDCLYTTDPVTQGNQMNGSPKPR
Particulars: when administered to mice; cited from earlier work.

For a further data set, the system named is mice. Particulars: administration to mice; cited from earlier work.
The next data set deals with rats. The settings on record: administration to rats; cited from earlier work.
The test system of the next data set is humans. Particulars: studies in humans; cited from earlier work.
Data set [5] in a line: Examination of 1.0% THI cream on a mixing plate. In kind it is physicochemical. The settings on record: 100 mg THI in 10 g base cream (1.0%). As to the method: A topical formulation containing 100 mg of THI in 10 g of base cream was prepared as follows. […] A smooth cream was obtained by levigation in a marble mortar and pestle. A dime-sized portion of the […] material was then incorporate geometrically with similar-sized portions of base and mixed thoroughly. […] Application of the finished cream to the skin left no residue.

Data set [6] concerns skin. Particulars: human exposure studies and clinical experience; cited from earlier work.
For data set [7] the following is noted: chronic studies; cited from earlier work.
For data set [8] the following is noted: subchronic oral, high doses; cited from earlier work.
The conditions of data set [9]: dermal laboratory studies; cited from earlier work.
The conditions of data set [10]: in vivo; cited from earlier work.
Data set [11] deals with skin. Particulars: clinical studies; cited from earlier work.
A further data set concerns eye. The settings on record: in vivo; cited from earlier work.
For data set [12] the following is noted: in vivo; cited from earlier work. This is another data set of the same source.

Take `CC1(C)C(=O)N(CO)C(=O)N1CO` [DMDM hydantoin, 1,3-Bis(hydroxymethyl)-5,5-dimethylimidazolidine-2,4-dione]: the “adverse effects of oral exposure” value in [1] is “did not result in any adverse effects”. For the same compound, the skin irritation result with skin [2] is given as “some observations of skin irritation”. Moreover, in data set [3], the in vitro mutagenicity result is listed as “positive results in some in vitro mutagenicity studies”. For the same compound, the “absorption from the skin” value in the data set on skin [4] was “poorly absorbed from the skin”.

In the case of `CC(=O)c1nc(C(O)C(O)C(O)CO)c[nH]1` (stereo not shown) [THI, 2-acetyl-4-tetrahydroxybutylimidazole], the S1P lyase activity entry on S1P lyase is recorded as “inhibits S1P lyase activity”. In addition, the “accumulation of mature T cells in the thymus” value in the data set with mice and with rats was “causes the accumulation of mature T cells in the thymus” throughout. Further, the lymphopenia result in the data set on mice and with rats was “induces lymphopenia” throughout. Further, the “immunological effects in humans” value with humans is “no immunological effects”. Moreover, the “dissolution of THI in the cream base” value in [5] was “at least partially dissolving in the cream base”.

`CCCCCCCCCCCCCCCCCC(=O)OCC(O)CO` (stereo not shown) [glyceryl stearate, Glyceryl stearate]: the “sensitization, phototoxicity, photosensitization” value with skin [6] was “non-sensitizing, non-phototoxic and non-photosensitizing”. In data set [7], the carcinogenic effects entry is recorded as “no carcinogenic effects” and the effects on reproduction entry is reported as “no adverse effects on reproduction”.

For `OCCOc1ccccc1` [phenoxyethanol, 2-Phenoxyethanol], the organ weights result in [8] is reported as “increased weights of some organs”. Also, in [9], the birth defects entry is listed as “did not cause any birth defects”. The “toxicity via oral and dermal administration” value in [10] is “practically nontoxic”. In the data set on skin [11], the delayed hypersensitivity entry is “did not cause delayed hypersensitivity”; the phototoxicity result was “nonphototoxic”; the “primary and cumulative irritation” value is given as “neither a primary nor a cumulative irritant”.

Consider Carbomer, for which, in the data set on eye, the eye irritation entry was “no to moderate eye irritation”.

Regarding PEG-100 stearate, the “changes in growth, histopathologic observations or hematologic values” in [12] is reported as “no significant changes”.
